This note sets out measurements from patent US9725465B2, “Biaryl acetamide compounds and methods of use thereof” (Ambit Biosciences Corporation, priority 2013, dated 2017).

One test has as its target FLT3-ITD (Homo sapiens (Human), UniProt P36888, INS600HVDFREYEYD). The experiment in a line: pFLT3 MSD assay, Ba/F3 FLT3-ITD. In kind it is cell-based. The conditions noted are these: Ba/F3 FLT3-ITD cells, 2 hours, read-out: BaF3-FLT3-ITD pFlt3 IC50.
The next test has as its target KIT kinase (Homo sapiens (Human), UniProt P10721). The experiment in a line: Competition binding assay (Kd), KIT. The conditions noted are these: competition binding assay. In outline: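 Kinase, as T7 phage fusion or HEK-293-expressed DNA-tagged protein, competed off immobilised ligand beads by test compound (eleven-point threefold dilutions, from 100× DMSO stocks). Eluted kinase quantified by qPCR to derive Kd; DMSO used as control.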

In a further test the target is FLT3 kinase (Homo sapiens (Human), UniProt P36888). As to the kind of experiment: Competition binding assay (Kd), FLT3. As to conditions: competition binding assay.
Chain of FLT3 kinase (P36888 27-993): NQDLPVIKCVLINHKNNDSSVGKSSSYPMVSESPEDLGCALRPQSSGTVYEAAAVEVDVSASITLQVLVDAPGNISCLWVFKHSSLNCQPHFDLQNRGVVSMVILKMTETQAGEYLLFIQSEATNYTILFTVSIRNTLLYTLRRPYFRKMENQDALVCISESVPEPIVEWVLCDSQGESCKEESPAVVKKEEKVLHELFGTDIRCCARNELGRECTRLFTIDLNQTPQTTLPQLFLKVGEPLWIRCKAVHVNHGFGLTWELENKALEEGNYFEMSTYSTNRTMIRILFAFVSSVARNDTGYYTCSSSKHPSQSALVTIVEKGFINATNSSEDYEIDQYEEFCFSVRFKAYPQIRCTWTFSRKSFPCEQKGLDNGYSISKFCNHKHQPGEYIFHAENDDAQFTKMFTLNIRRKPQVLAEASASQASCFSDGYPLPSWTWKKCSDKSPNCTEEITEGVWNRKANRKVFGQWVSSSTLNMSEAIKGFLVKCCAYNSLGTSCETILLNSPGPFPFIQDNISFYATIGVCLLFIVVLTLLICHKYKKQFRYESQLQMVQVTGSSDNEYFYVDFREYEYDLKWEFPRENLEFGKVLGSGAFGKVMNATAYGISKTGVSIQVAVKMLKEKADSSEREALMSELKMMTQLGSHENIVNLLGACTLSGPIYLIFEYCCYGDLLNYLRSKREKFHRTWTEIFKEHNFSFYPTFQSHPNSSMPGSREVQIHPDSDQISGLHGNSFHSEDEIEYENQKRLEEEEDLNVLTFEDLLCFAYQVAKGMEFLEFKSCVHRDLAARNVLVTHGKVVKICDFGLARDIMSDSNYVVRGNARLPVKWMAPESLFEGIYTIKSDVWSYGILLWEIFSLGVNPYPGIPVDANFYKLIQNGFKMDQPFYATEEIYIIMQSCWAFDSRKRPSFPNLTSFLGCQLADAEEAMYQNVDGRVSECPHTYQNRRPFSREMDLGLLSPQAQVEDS

pIC50, pKd: −log10 of the molar value.

Chain of KIT kinase (P10721 26-976): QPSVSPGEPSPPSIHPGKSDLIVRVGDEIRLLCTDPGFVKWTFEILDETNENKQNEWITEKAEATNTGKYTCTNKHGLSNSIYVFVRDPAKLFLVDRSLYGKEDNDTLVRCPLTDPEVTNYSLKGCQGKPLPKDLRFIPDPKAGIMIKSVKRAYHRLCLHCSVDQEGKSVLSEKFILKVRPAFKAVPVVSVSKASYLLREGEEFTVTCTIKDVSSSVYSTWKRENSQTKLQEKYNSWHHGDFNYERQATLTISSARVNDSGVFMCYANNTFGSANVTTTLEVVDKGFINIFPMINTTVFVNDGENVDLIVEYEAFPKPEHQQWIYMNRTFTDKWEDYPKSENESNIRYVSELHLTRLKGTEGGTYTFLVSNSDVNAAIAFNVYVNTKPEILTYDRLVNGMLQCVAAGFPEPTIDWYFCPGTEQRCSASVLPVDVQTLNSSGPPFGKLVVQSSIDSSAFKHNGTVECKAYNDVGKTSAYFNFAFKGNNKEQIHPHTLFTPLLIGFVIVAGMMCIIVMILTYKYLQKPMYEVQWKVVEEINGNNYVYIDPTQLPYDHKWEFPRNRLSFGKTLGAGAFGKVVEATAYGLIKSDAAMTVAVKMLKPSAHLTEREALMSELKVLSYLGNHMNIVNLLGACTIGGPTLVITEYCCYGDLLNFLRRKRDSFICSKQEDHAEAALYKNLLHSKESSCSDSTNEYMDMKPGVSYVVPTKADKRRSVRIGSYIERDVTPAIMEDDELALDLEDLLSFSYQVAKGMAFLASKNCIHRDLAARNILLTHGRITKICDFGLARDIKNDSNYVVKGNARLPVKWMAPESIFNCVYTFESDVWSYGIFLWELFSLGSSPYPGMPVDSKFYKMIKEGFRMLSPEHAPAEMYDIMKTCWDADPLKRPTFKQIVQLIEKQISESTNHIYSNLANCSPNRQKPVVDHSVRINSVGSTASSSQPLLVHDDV
Chain of FLT3-ITD (P36888 other isoform, or with tags, fused parts or gaps limits assumed, stated change not applied): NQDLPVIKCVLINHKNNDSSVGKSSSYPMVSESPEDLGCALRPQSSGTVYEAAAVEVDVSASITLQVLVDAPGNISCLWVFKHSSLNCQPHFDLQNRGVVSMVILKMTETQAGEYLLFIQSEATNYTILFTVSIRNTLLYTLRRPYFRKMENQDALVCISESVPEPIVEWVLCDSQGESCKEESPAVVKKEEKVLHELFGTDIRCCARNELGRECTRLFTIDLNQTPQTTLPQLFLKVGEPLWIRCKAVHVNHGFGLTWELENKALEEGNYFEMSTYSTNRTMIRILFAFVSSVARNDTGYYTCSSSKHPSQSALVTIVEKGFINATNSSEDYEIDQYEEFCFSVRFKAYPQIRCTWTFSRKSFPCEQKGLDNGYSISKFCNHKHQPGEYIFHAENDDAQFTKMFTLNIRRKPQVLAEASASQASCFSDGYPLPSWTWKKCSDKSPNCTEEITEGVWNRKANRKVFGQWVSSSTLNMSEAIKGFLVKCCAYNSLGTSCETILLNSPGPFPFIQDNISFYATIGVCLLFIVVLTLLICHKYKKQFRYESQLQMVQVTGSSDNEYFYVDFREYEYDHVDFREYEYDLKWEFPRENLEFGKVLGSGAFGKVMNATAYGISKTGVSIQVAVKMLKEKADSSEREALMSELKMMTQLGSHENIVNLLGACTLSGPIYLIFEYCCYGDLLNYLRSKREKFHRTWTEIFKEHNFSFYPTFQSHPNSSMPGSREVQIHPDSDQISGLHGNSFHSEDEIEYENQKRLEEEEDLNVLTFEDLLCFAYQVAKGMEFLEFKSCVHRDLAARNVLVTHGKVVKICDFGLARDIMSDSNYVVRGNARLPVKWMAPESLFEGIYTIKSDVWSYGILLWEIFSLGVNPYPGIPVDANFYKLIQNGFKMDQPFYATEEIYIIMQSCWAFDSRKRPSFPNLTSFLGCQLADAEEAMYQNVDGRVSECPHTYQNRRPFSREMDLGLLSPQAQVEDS
Experimental for FLT3 kinase: The liganded beads were blocked with excess biotin and washed with blocking buffer (SeaBlock (Pierce), 1% BSA, 0.05% Tween 20, 1 mM DTT) to remove unbound ligand and to reduce non-specific binding. […] Test compounds were prepared as 100× stocks in DMSO and diluted into the aqueous environment. Kds were determined using an eleven point threefold serial dilutions. DMSO or control compounds were was added to control assays lacking a test compound. […] The kinase concentration in the eluates was measured by quantitative PCR.
A selectivity score (S35) is a quantitative measure of selectivity of a compound against a panel of kinases. […] Percent of control (POC) is calculated by subtracting the signal of the control compound (POC=0) from the signal of the test compound and dividing the outcome by the signal of DMSO (POC=100) minus the signal of the control compound.

With `COc1ccc2cc(-c3ccc(CC(=O)Nc4cc(C5(C(F)(F)F)CC5)on4)cc3)cnc2c1` [Example 2, 2-(4-(7-methoxyquinolin-3-yl)phenyl)-N-(5-(1-(trifluoromethyl)cyclopropyl)isoxazol-3-yl)acetamide], at FLT3-ITD, the pIC50 – broadly, −log10 of the IC50, conventionally taken in molar units – is greater than 8.00. Further, the pKd on KIT kinase and at FLT3 kinase was greater than 8.30 each time.
Consider `O=C(Cc1ccc(-c2cnc3[nH]ccc3n2)cc1)Nc1cc(C2(C(F)(F)F)CC2)on1` [Example 3, 2-(4-(5H-pyrrolo[2,3-b]pyrazin-2-yl)phenyl)-N-(5-(1-(trifluoromethyl)cyclopropyl)isoxazol-3-yl)acetamide], for which the pIC50 on FLT3-ITD is greater than 8.00. Besides, the pKd on KIT kinase and on FLT3 kinase was greater than 8.30 throughout.
On to `COc1cc2ncc(-c3ccc(CC(=O)Nc4cc(C5(C(F)(F)F)CC5)on4)c(F)c3)nc2cc1OC` [Example 4, 2-(4-(6,7-dimethoxyquinoxalin-2-yl)-2-fluorophenyl)-N-(5-(1-(trifluoromethyl)cyclopropyl)isoxazol-3-yl)acetamide], for which the pIC50 at FLT3-ITD is greater than 8.00. In addition, the pKd at KIT kinase and at FLT3 kinase was greater than 8.30 throughout.
For the compound `COc1cc2cc(-c3ccc(CC(=O)Nc4cc(C5(C(F)(F)F)CC5)on4)cc3)cnc2cc1OC` [Example 5, 2-(4-(6,7-dimethoxyquinolin-3-yl)phenyl)-N-(5-(1-(trifluoromethyl)cyclopropyl)isoxazol-3-yl)acetamide], at FLT3-ITD, the pIC50 was greater than 8.00. Further, the pKd at KIT kinase and at FLT3 kinase was greater than 8.30 each time.
For the compound `COc1cc2ncc(-c3ccc(CC(=O)Nc4cc(C(C)(C)C)on4)cc3)nc2cc1OC` [Example 6, N-(5-(tert-butyl)isoxazol-3-yl)-2-(4-(6,7-dimethoxyquinoxalin-2-yl)phenyl)acetamide], the pIC50 at FLT3-ITD was greater than 8.00. The pKd on KIT kinase and on FLT3 kinase was greater than 8.30 in each case.
As to `COc1cc2ncc(-c3ccc(CC(=O)Nc4cc(C(C)(C)C(F)(F)F)on4)cc3)nc2cc1OC` [Example 8, 2-(4-(6,7-dimethoxyquinoxalin-2-yl)phenyl)-N-(5-(1,1,1-trifluoro-2-methylpropan-2-yl)isoxazol-3-yl)acetamide], the pIC50 at FLT3-ITD is greater than 8.00. Moreover, the pKd on KIT kinase and on FLT3 kinase was greater than 8.30 each time.
Turning to `COc1cc2ncc(-c3ccc(CC(=O)Nc4cc(C(C)(C)C(F)(F)F)on4)c(F)c3)nc2cc1OC` [Example 46, 2-(4-(6,7-dimethoxyquinoxalin-2-yl)-2-fluorophenyl)-N-(5-(1,1,1-trifluoro-2-methylpropan-2-yl)isoxazol-3-yl)acetamide], the pIC50 on FLT3-ITD is greater than 8.00. In addition, the figures for the pKd on KIT kinase and at FLT3 kinase were 7.70 to 8.30 and greater than 8.30, respectively.
As for `CC(O)c1n[nH]c2ncc(-c3ccc(CC(=O)Nc4cc(C(C)(C)C)on4)c(F)c3)cc12` (stereo not drawn) [Example 62, N-(5-(tert-butyl)isoxazol-3-yl)-2-(2-fluoro-4-(3-(1-hydroxyethyl)-1H-pyrazolo[3,4-b]pyridin-5-yl)phenyl)acetamide], the pIC50 at FLT3-ITD is greater than 8.00. For the same compound, the pKd at KIT kinase and on FLT3 kinase was greater than 8.30 each time.
On to `COc1n[nH]c2ncc(-c3ccc(CC(=O)Nc4cc(C(C)(C)C(F)(F)F)on4)c(F)c3)cc12` [Example 63, 2-(2-fluoro-4-(3-methoxy-1H-pyrazolo[3,4-b]pyridin-5-yl)phenyl)-N-(5-(1,1,1-trifluoro-2-methylpropan-2-yl)isoxazol-3-yl)acetamide], for which, on FLT3-ITD, the pIC50 is greater than 8.00. Also, the pKd at KIT kinase and on FLT3 kinase was greater than 8.30 in each case.
As for `CC(C)(C)c1cc(NC(=O)Cc2ccc(-c3cnc4[nH]c(C(=O)NCCO)cc4c3)cc2)no1` [Example 64, 5-(4-(2-((5-(tert-butyl)isoxazol-3-yl)amino)-2-oxoethyl)phenyl)-N-(2-hydroxyethyl)-1H-pyrrolo[2,3-b]pyridine-2-carboxamide], the pIC50 at FLT3-ITD is greater than 8.00. In addition, the pKd on KIT kinase and at FLT3 kinase was greater than 8.30 each time.
As for `CNC(=O)c1cc2cc(-c3ccc(CC(=O)Nc4cc(C(C)(C)C)on4)cc3)cnc2[nH]1` [Example 65, 5-(4-(2-((5-(tert-butyl)isoxazol-3-yl)amino)-2-oxoethyl)phenyl)-N-methyl-1H-pyrrolo[2,3-b]pyridine-2-carboxamide], the pIC50 at FLT3-ITD was greater than 8.00. The negative-log Kd (pKd) at KIT kinase and at FLT3 kinase was greater than 8.30 each time.
Take `CN(C)CCNC(=O)c1cc2cc(-c3ccc(CC(=O)Nc4cc(C(C)(C)C)on4)cc3)cnc2[nH]1` [Example 66, 5-(4-(2-((5-(tert-butyl)isoxazol-3-yl)amino)-2-oxoethyl)phenyl)-N-(2-(dimethylamino)ethyl)-1H-pyrrolo[2,3-b]pyridine-2-carboxamide]: the pIC50 at FLT3-ITD was greater than 8.00. For the same compound, the pKd on KIT kinase and at FLT3 kinase was greater than 8.30 in each case.
With `CN(C)CCCN(C)C(=O)c1cc2cc(-c3ccc(CC(=O)Nc4cc(C(C)(C)C)on4)cc3)cnc2[nH]1` [Example 67, 5-(4-(2-((5-(tert-butyl)isoxazol-3-yl)amino)-2-oxoethyl)phenyl)-N-(3-(dimethylamino)propyl)-N-methyl-1H-pyrrolo[2,3-b]pyridine-2-carboxamide], at FLT3-ITD, the pIC50 was greater than 8.00. The pKd on KIT kinase and at FLT3 kinase was greater than 8.30 in each case.
As to `CC(C)(C)c1cc(NC(=O)Cc2ccc(-c3cnc4[nH]c(C(=O)NCCS(C)(=O)=O)cc4c3)cc2)no1` [Example 68, 5-(4-(2-((5-(tert-butyl)isoxazol-3-yl)amino)-2-oxoethyl)phenyl)-N-(2-(methylsulfonyl)ethyl)-1H-pyrrolo[2,3-b]pyridine-2-carboxamide], the pIC50 on FLT3-ITD was greater than 8.00. Besides, the pKd at KIT kinase and on FLT3 kinase was greater than 8.30 throughout.
On to `CN1CCC(NC(=O)c2cc3cc(-c4ccc(CC(=O)Nc5cc(C(C)(C)C)on5)cc4)cnc3[nH]2)CC1` [Example 69, 5-(4-(2-((5-(tert-butyl)isoxazol-3-yl)amino)-2-oxoethyl)phenyl)-N-(1-methylpiperidin-4-yl)-1H-pyrrolo[2,3-b]pyridine-2-carboxamide], for which the pIC50 on FLT3-ITD is greater than 8.00. For the same compound, the pKd on KIT kinase and on FLT3 kinase was greater than 8.30 each time.
`O=C(Cc1ccc(-c2cnc3[nH]c(CO)cc3c2)cc1F)Nc1cc(C2(C(F)(F)F)CC2)on1` [Example 70, 2-(2-fluoro-4-(2-(hydroxymethyl)-1H-pyrrolo[2,3-b]pyridin-5-yl)phenyl)-N-(5-(1-(trifluoromethyl)cyclopropyl)isoxazol-3-yl)acetamide]: on FLT3-ITD, the pIC50 was greater than 8.00. In addition, the pKd at KIT kinase and at FLT3 kinase was greater than 8.30 each time.
Consider `CC(=O)OCCOc1cc2ncc(-c3ccc(CC(=O)Nc4cc(C5(C(F)(F)F)CC5)on4)c(F)c3)nc2cc1OCCOC(C)=O` [Example 74, ((2-(3-fluoro-4-(2-oxo-2-((5-(1-(trifluoromethyl)cyclopropyl)isoxazol-3-yl)amino)ethyl)phenyl)quinoxaline-6,7-diyl)bis(oxy))bis(ethane-2,1-diyl) diacetate], for which the pIC50 at FLT3-ITD was greater than 8.00. The pKd (in general, the Kd on a negative log10 scale, so that one unit is a factor of ten) on KIT kinase was 7.70 to 8.30; on FLT3 kinase, greater than 8.30.
As for `O=C(Cc1ccc(-c2cnc3cc(OCCO)c(OCCO)cc3n2)cc1F)Nc1cc(C2(C(F)(F)F)CC2)on1` [Example 75, 2-(4-(6,7-bis(2-hydroxyethoxy)quinoxalin-2-yl)-2-fluorophenyl)-N-(5-(1-(trifluoromethyl)cyclopropyl)isoxazol-3-yl)acetamide], the pIC50 on FLT3-ITD is greater than 8.00. Further, the pKd at KIT kinase and on FLT3 kinase was greater than 8.30 throughout.
For `O=C(Cc1ccc(-c2cnc3cc4c(cc3n2)OCCO4)cc1F)Nc1cc(C2(C(F)(F)F)CC2)on1` [Example 76, 2-(4-(2,3-dihydro-[1,4]dioxino[2,3-g]quinoxalin-7-yl)-2-fluorophenyl)-N-(5-(1-(trifluoromethyl)cyclopropyl)isoxazol-3-yl)acetamide], the pIC50 on FLT3-ITD was greater than 8.00. The pKd was 7.70 to 8.30 on KIT kinase and greater than 8.30 on FLT3 kinase.
For the compound `COc1cc2nc(-c3ccc(CC(=O)Nc4cc(C5(C(F)(F)F)CC5)on4)c(F)c3)cnc2cc1O` [Example 78, 2-(2-fluoro-4-(6-hydroxy-7-methoxyquinoxalin-2-yl)phenyl)-N-(5-(1-(trifluoromethyl)cyclopropyl)isoxazol-3-yl)acetamide], the pIC50 at FLT3-ITD is greater than 8.00. The pKd at KIT kinase and on FLT3 kinase was greater than 8.30 in each case.
As to `COc1cc2nc(-c3ccc(CC(=O)Nc4cc(C5(C(F)(F)F)CC5)on4)c(F)c3)cnc2cc1OCCN1CCOCC1` [Example 79, 2-(2-fluoro-4-(7-methoxy-6-(2-morpholinoethoxy)quinoxalin-2-yl)phenyl)-N-(5-(1-(trifluoromethyl)cyclopropyl)isoxazol-3-yl)acetamide], the pIC50 at FLT3-ITD was greater than 8.00. Moreover, the pKd at KIT kinase and at FLT3 kinase was greater than 8.30 each time.
For `COc1cc2ncc(-c3ccc(CC(=O)Nc4cc(C5(C(F)(F)F)CC5)on4)c(F)c3)nc2cc1OCCO` [Example 80, 2-(2-fluoro-4-(7-(2-hydroxyethoxy)-6-methoxyquinoxalin-2-yl)phenyl)-N-(5-(1-(trifluoromethyl)cyclopropyl)isoxazol-3-yl)acetamide], the pIC50 at FLT3-ITD was greater than 8.00. Further, the pKd on KIT kinase and at FLT3 kinase was greater than 8.30 each time.
In the case of `CCOc1cc2ncc(-c3ccc(CC(=O)Nc4cc(C5(C(F)(F)F)CC5)on4)c(F)c3)cc2cc1OC` [Example 86, 2-(4-(7-ethoxy-6-methoxyquinolin-3-yl)-2-fluorophenyl)-N-(5-(1-(trifluoromethyl)cyclopropyl)isoxazol-3-yl)acetamide], at FLT3-ITD, the pIC50 is greater than 8.00. The pKd at KIT kinase and at FLT3 kinase was greater than 8.30 throughout.
